From patent publication US5958890A, “Tricyclic compounds useful for inhibition of G-protein function and for treatment of proliferative diseases” (Schering Corporation, priority 1997, dated 1999) come the findings set out here.

pIC50: −log10 of the molar value.

The target in assay [1] is farnesyl protein transferase (Homo sapiens, UniProt P49354+P49356). The experiment in a line: FPT inhibition, in vitro enzyme assay (procedure of WO 95/10516). Type of assay: biochemical.
A further assay concerns COS Cell. The experiment in a line: COS Cell IC50 (Cell-Based Assay, procedure of WO 95/10516). The method, then: FPT IC50 (inhibition of farnesyl protein transferase, in vitro enzyme assay) and COS Cell IC50 (Cell-Based Assay) were determined following the assay procedures described in WO 95/10516, published Apr. 20, 1995. GGPT IC50 (inhibition of geranylgeranyl protein transferase, in vitro enzyme assay), Cell Mat Assay, and anti-tumor activity (in vivo anti-tumor studies) could be determined by the assay procedures described in WO 95/10516. The disclosure of WO 95/10516 is incorporated herein by reference thereto.

In the case of `NC(=O)N1CC[C@H](CC(=O)N2CCC(C3c4ncc(Br)cc4CCc4cc(Cl)cc(Cl)c43)CC2)C1` (single isomer, unassigned) [Example 1], the pIC50 in assay [1] is 10.41.

For the compound `NC(=O)N1CC[C@@H](CC(=O)N2CCC(C3c4ncc(Br)cc4CCc4cc(Cl)cc(Cl)c43)CC2)C1` (single isomer, unassigned) [Example 2], in the assay with COS Cell, the pIC50 is 10.52.

For orientation: pIC50 means the IC50 on a negative log10 scale, so that one unit is a factor of ten.
